The source of these data is patent publication US6004992A, “Aminocarboxylic acid fluorobutenyl esters” (Bayer Aktiengesellschaft, priority 1995, dated 1999).

One series concerns Meloidogyne incognita. The series is described as follows: Critical Concentration Test/nematodes. Format: in vivo. To be noted: 20 ppm (=mg/l soil), four weeks, 25° C., 100% = infestation avoided completely. The protocol:
Critical Concentration Test/nematodes
Test nematode: Meloidogyne incognita
Solvent: 4 parts by weight of acetone
Emulsifier: 1 part by weight of alkylaryl polyglycol ether
To produce a suitable preparation of active compound, 1 part by weight of active compound is mixed with the stated amount of solvent, the stated amount of emulsifier is added and the concentrate is diluted with water to the desired concentration.
The active compound preparation is intimately mixed with soil which is heavily infested with the test nematodes. The active compound concentration in the preparation is immaterial, only the amount of active compound per unit volume of soil, which is given in ppm (=mg/l), matters. The treated soil is transferred into pots, lettuce is sown in, and the pots are kept at a greenhouse temperature of 25° C.
After four weeks, the lettuce roots are checked for infestation with nematodes (root galls) and the efficacy of the active compound in % is determined. The efficacy is 100% when infestation is avoided completely and 0% when the infestation level is just as high as in the control plants in untreated, but equally infested, soil.

Series [1] concerns Boophilus Microplus Resistent/SP-resistent Parkhurst Strain. Put plainly: Test with Boophilus Microplus Resistent/SP-resistent Parkhurst Strain (inhibition of oviposition). The class given is in vivo. To be noted: 20 μg/animal; 1 μl injected into the abdomen, adult females; 100% = no tick has deposited eggs. The protocol:
Test with Boophilus Microplus Resistent/SP-resistent Parkhurst Strain
Test animals: Adult females which have sucked themselves full
Solvent: Dimethyl sulphoxide
20 mg of active compound are dissolved in 1 ml of dimethyl sulphoxide, and lower concentrations are prepared by diluting in the same solvent.
The test is carried out in 5 replications. 1 μl of the solutions is injected into the abdomen, and the animals are transferred into dishes and kept in an air-conditioned room. The activity is determined via the inhibition of oviposition. 100% means that no tick has deposited eggs.

Another series in a line: log p (pH 2). Format: physicochemical.

Regarding `CC(=O)NC(=Cc1ccccc1)C(=O)OCCC(F)=C(F)F` [Example Ia-2], the “efficacy of the active compound in % (nematode infestation of lettuce roots, root galls)” value in the series with Meloidogyne incognita is on record as 100%. On to `CC(=O)NC(=Cc1cccs1)C(=O)OCCC(F)=C(F)F` [Example Ia-4], for which the “activity (inhibition of oviposition)” value in series [1] was determined as 100%. A word on the logD: it is the decadic logarithm of the distribution of all forms, ionised or not, between an organic phase and buffer at a given pH. In the case of `C[C@H](NC(=O)c1c(F)cccc1F)C(=O)OCCC(F)=C(F)F` [Example Ib-2, 3,4,4-trifluorobut-3-enyl N-(2,6-difluorobenzoyl)-alaninate], the log distribution coefficient (logD) in the series “log p (pH 2)” is 2.42. Still for that read-out and setting: the same measure for `O=C(CNC(=O)c1ccccc1)OCCC(F)=C(F)F` [Ib-6]: 2.09.

In the case of `O=CNC1(C(=O)OCCC(F)=C(F)F)CC1` [Ib-14], in “log p (pH 2)”, the logD worked out at 1.32.

In “log p (pH 2)”, `O=C(OCCC(F)=C(F)F)C1CCCN1C(=O)OCc1ccccc1` (stereo not drawn) [Ic-1] gave a log distribution coefficient (logD) of 3.31.
